According to the METLIN SMRT retention time set (Domingo-Almenara et al. 2019):

Test: gradient 5% acetonitrile 3 min, to 50% in 2 min, to 85% in 15 min, held 3 min, 100 µL/min
Settings: column: Zorbax Extend-C18 2.1 x 50 mm; eluents: water / acetonitrile, 0.1% formic acid
Method in brief: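 The mobile phases were water and acetonitrile, each with 0.1% formic acid, pumped at 100 μL/min through a Zorbax Extend-C18 column (2.1 × 50 mm, 1.8 μm). Pure standards were injected as mixtures of ~100 molecules and detected by a quadrupole time-of-flight mass spectrometer in positive and negative ionization mode. Retention time came from computationally picked adduct peaks, each inspected by hand.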

SMILES	RP-LC retention time [s]
Cc1cccc(NC(=O)Cn2nc(N3CCCC3)c3ccccc3c2=O)c1	960
COC(=O)c1ccc(NC(=O)N2CCOc3ccc(Cl)cc32)cc1	1000
CC1(C(=O)NC2CCCCCC2)Cn2c(cc3occc32)C(=O)N1Cc1cccnc1 (stereo unspecified)	661
Cc1ccc(-n2ccnc2SCc2nc(-c3cccc(F)c3)no2)cc1	971
COc1cc([C@@H]2c3cc4c(cc3[C@@H](O[C@@H]3O[C@@H]5COC(c6cccs6)O[C@H]5[C@H](O)[C@H]3O)[C@H]3COC(=O)[C@H]23)OCO4)cc(OC)c1O (stereo partly specified)	780
COc1cccc(-n2c(=O)c(C(=O)Nc3ccccc3Cl)c(O)c3cccnc32)c1	1290
O=C(NCc1cscn1)C1CCN(S(=O)(=O)c2ccc(Br)s2)CC1	740
CCOc1ccc(C(=O)N2C[C@@H]3C[C@H]2C[C@@H]3NC(=O)c2ccccc2)cc1	757
Cc1noc(-c2cccc(OC3CN(S(=O)(=O)c4c(C)nn(C)c4C)C3)c2)n1	850
CCn1c(=O)c(C(=O)NCc2cc(F)ccc2F)nc2cccnc21	802
COc1cccc(CNC(=O)N2c3ccccc3CC2c2nc(C(C)C)no2)c1 (stereo unspecified)	1000
CCCN(CCC)C(=O)C1CCCN(c2ncnc3c2nc2n3CCCCC2)C1 (stereo unspecified)	836
O=c1n(Cc2ccc(F)cc2Cl)nc2c(S(=O)(=O)N3CCCC3)cccn12	1020
Cc1cc(C)c(NS(=O)(=O)c2ccc(Cl)c(C(=O)O)c2)c(C)c1	829
Cc1cc(C)n(CCNC(=O)c2ccsc2)n1	593
O=C(CN1CCN(Cc2ccc(F)cc2)C(=O)C1=O)N1CCN(c2ccc(F)cc2)CC1	744
COc1cc(CC(=O)N2CCN(c3cc(C)n4cnnc4n3)CC2)cc(OC)c1	607
CCc1sc(NC(=O)CCSc2ccccc2)nc1-c1ccccc1	1210
COc1cccc(-c2n[nH]c3c2C(c2ccc(OC)cc2OC)NC3=O)c1 (stereo unspecified)	753
COC(=O)C1C(O)CCC2CN3CCc4c([nH]c5ccccc45)C3CC21 (stereo unspecified)	673
Cc1ccc2nc(-c3ccc(O)cc3)c(Nc3ccc(Cl)cc3)n2c1	671
COCC1(O)CCOC2(CCN(C(=O)C3CCCCC3)CC2)C1 (stereo unspecified)	656

SMILES	RP-LC retention time [s]
O=C(NC1CCCCC1)N1CCc2nc(-c3ccc(Cl)cc3)ncc2C1	1050
CCN(CC)CCCN(c1ccccc1)C1Cc2ccccc2C1	754
CCCNC(=O)CCc1nc2ccccc2n(CC(=O)Nc2ccc(C(C)C)cc2)c1=O	891
Cc1c(S(=O)(=O)N2CCN(c3ccccn3)CC2)cc(-c2nc(-c3ccccc3)cs2)n1C	885
CC(=O)NC[C@H]1CN(c2ccc(-c3ccc(CNCc4cn[nH]n4)cc3)c(F)c2)C(=O)O1	647
CCOC(=O)CC1C(=O)NCCN1C(=O)COc1ccc(Br)cc1C (stereo unspecified)	797
CC(=O)N1c2ccc(S(=O)(=O)N3CCOCC3)cc2CC1C(=O)N1CCCCC1 (stereo unspecified)	697
O=c1c2cnc3nc(-c4ccccc4Cl)nn3c2ccn1-c1ncn[nH]1	670
CCc1ccc(CNC(=O)c2cn(CC)nc2S(=O)(=O)N2CCC(C)CC2)cc1	1180
CCn1cc(C(=O)Nc2ccc(Cl)cc2)c(S(=O)(=O)N2CCSCC2)n1	892
CCn1cc(C(=O)NC(C)c2ccc(OC)c(OC)c2)c(=O)c2ccc(C)nc21 (stereo unspecified)	885
COC[C@@H]1CN(S(=O)(=O)Cc2ccccc2)C[C@H]1c1nc(C)no1	836
O=C(Nc1ccc2c(c1)OCO2)N1CCC(N2CCN(Cc3ccccc3)C2=O)CC1	787
CCOc1cc(CNc2ccc3[nH]c(=O)[nH]c3c2)cc(Cl)c1OCC	700
O=C(Cn1nc(C(=O)N2CCCCC2)c2ccccc21)N1CCN(c2cccc(Cl)c2)CC1	1010
Cc1ccn2cc(-c3ccc(NS(=O)(=O)c4ccc(F)cc4)cc3)nc2n1	649
Cc1ccccc1Cn1c(CN2CCC(C(=O)NC(C)Cc3ccco3)CC2)cc2ccccc21 (stereo unspecified)	833
CN1CCN(c2nc3ccccc3nc2Cl)CC1	650
COCCN1C(=O)[C@H]2CN(Cc3ccc(OC)c(OC)c3OC)C[C@H]2C1=O	799
Cn1nc(C(=O)N2CCCCC2)c2c1CCN(C(=O)Nc1ccccc1Br)C2	764
COCc1nncn1C1CCN(S(=O)(=O)c2ccc(C(F)(F)F)cc2)CC1	764
CN1Cc2sccc2C(c2ccc(O)c(O)c2)C1 (stereo unspecified)	628

SMILES	RP-LC retention time [s]
CN(C)CCCn1c(C2CC(=O)N(c3ccccc3F)C2)nc2ccccc21 (stereo unspecified)	580
O=C1COc2ccc(Cl)cc2N1Cc1nc(-c2cccc(-c3csc(C4CC4)n3)c2)no1	1300
Cc1nnc(-c2cc(C)n(CC(=O)Nc3cccc(C)c3C)c2C)o1	767
O=C1NC2(CCN(C(=O)Nc3cccc(F)c3)CC2)Oc2ccccc21	743
O=C(Cc1ccc(F)cc1)NC1CCN(c2ccccc2)C1=O (stereo unspecified)	770
CC1=NS(=O)(=O)N(C)C=C1C(=O)OCCc1ccccc1	967
CC(NC(=O)c1ccc(-c2cncnc2)nc1)c1ccccc1 (stereo unspecified)	715
CS(=O)(=O)N1CCC(C(=O)Nc2ccccc2)Oc2ccc(Cl)cc21 (stereo unspecified)	887
CCN(CC)CCNC(=O)c1cc(S(C)(=O)=O)ccc1OC	617
COCc1cc(=O)n(CC(=O)Nc2ccc(Cl)cc2)c(N2CCOCC2)n1	865
CCCN(CCC)c1nc(-c2ccc(OC)cc2)nc2ccccc12	896
CCn1ccc2c(cc(C(=O)Nc3ccc(Cl)cc3)n2C)c1=O	819
O=C1NC2(CCN(C(=O)Cc3cccc(F)c3)CC2)Nc2cc(Cl)ccc21	808
CCOc1ccccc1-n1ccn(Cc2nc(-c3ccc(C)cc3)no2)c(=O)c1=O	920
COc1ccc(Cn2c(C)c(CNCc3cccnc3)c(C(=O)O)c2C)cc1	597
COCCn1nc(C(=O)N(C)CCCc2c(C)nn(C)c2C)c2c1CCNC2	572
COc1ccccc1OC(C)C(=O)N1CCN(c2nc(CN3CCOCC3)cs2)CC1 (stereo unspecified)	621
CCOC(=O)c1nc(Nc2cc(C)c(Cl)cc2OC)c2ccccc2n1	1130
CCOC(=O)c1[nH]c(C)c(CCC(=O)N2CCC(C(=O)NC3CCCCCC3)CC2)c1C	823
CCn1c(C(=O)NC(C)CCc2ccccc2)cc2sc(Cl)cc21 (stereo unspecified)	1270
Cc1ccc(-c2noc(Cn3cnc4c(oc5ccccc54)c3=O)n2)cc1	999
Cc1cc(C)cc(C(=O)NC2CCN(c3cc(-c4ccc(F)cc4)[nH]n3)C2)c1 (stereo unspecified)	795
